From US6486098B1, “Herbicidal phenoxypropionic acid N-alkyl-N-2-fluorophenyl amide compounds” (Dongbu Hannong Chemical Co. Ltd., priority 1999, dated 2002)

Tests used:
GLXMA (Soy bean) = assay: Leaf treatment test, soy bean; type: in vivo, Glycine max (L.) MERR; details: 14 days after treatment
GOSHI (Cotton) = assay: Leaf treatment test, cotton; type: in vivo, Gossypium; details: 14 days after treatment
Description: (§1) Seeds of rice, wheat, barley, corn, cotton, barnyard grass, common sorgum, large crabgrass and fall panicum were seeded at a pot with a surface area of 600 cm^2. […] 14 days after the treatment, the degree of damage to the plants was rated in % damage in comparison to the development of untreated control.

PANDI (Fall panicum) = assay: Leaf treatment test, fall panicum; type: in vivo, Panicum dichotomiflorum Michx; details: 14 days after treatment
Description: as §1

SORBI (Common sorgum) = assay: Leaf treatment test, common sorgum; type: in vivo, Andropogon sorghum; details: 14 days after treatment
Description: as §1

ECHCG (Barnyard grass) = assay: Leaf treatment test, barnyard grass; type: in vivo, Echinochloa crus-galli Beauv. var. caudata Kitagawa; details: leaf treatment at three leaves, 14 days after treatment
Description: as §1

ZEAMX (Corn) = assay: Leaf treatment test, corn; type: in vivo, Zea mays L.; details: 14 days after treatment
Description: as §1

ORYSA (Rice) = assay: Leaf treatment test, rice; type: in vivo, Oryza sativa L. cv. Dongjin; details: 14 days after treatment
Description: as §1

TRZAW (Wheat) = assay: Leaf treatment test, wheat; type: in vivo, Triticum aestivum L.; details: 14 days after treatment
Description: as §1

DIGSA (Large crabgrass) = assay: Leaf treatment test, large crabgrass; type: in vivo, Digitaria Sanguinalis (L.) SCOP; details: 14 days after treatment
Description: as §1

Row | SMILES | degree of damage to the plants (% damage) (GLXMA (Soy bean); treated amount 0.025 kg/ha) | degree of damage to the plants (% damage) (GLXMA (Soy bean); treated amount 0.1 kg/ha) | degree of damage to the plants (% damage) (GLXMA (Soy bean); treated amount 0.4 kg/ha) | degree of damage to the plants (% damage) (GOSHI (Cotton); treated amount 0.025 kg/ha) | degree of damage to the plants (% damage) (GOSHI (Cotton); treated amount 0.1 kg/ha) | degree of damage to the plants (% damage) (GOSHI (Cotton); treated amount 0.4 kg/ha) | degree of damage to the plants (% damage) (PANDI (Fall panicum); treated amount 0.1 kg/ha) | degree of damage to the plants (% damage) (PANDI (Fall panicum); treated amount 0.4 kg/ha) | degree of damage to the plants (% damage) (SORBI (Common sorgum); treated amount 0.025 kg/ha) | degree of damage to the plants (% damage) (SORBI (Common sorgum); treated amount 0.1 kg/ha) | degree of damage to the plants (% damage) (SORBI (Common sorgum); treated amount 0.4 kg/ha) | degree of damage to the plants (% damage) (ECHCG (Barnyard grass); treated amount 0.025 kg/ha) | degree of damage to the plants (% damage) (ECHCG (Barnyard grass); treated amount 0.1 kg/ha) | degree of damage to the plants (% damage) (ECHCG (Barnyard grass); treated amount 0.4 kg/ha) | degree of damage to the plants (% damage) (ZEAMX (Corn); treated amount 0.025 kg/ha) | degree of damage to the plants (% damage) (ZEAMX (Corn); treated amount 0.1 kg/ha) | degree of damage to the plants (% damage) (ZEAMX (Corn); treated amount 0.4 kg/ha) | degree of damage to the plants (% damage) (ORYSA (Rice); treated amount 0.025 kg/ha) | degree of damage to the plants (% damage) (ORYSA (Rice); treated amount 0.1 kg/ha) | degree of damage to the plants (% damage) (ORYSA (Rice); treated amount 0.4 kg/ha) | further results
1 | CC(Oc1ccc(Oc2nc3ccc(Cl)cc3o2)cc1)C(=O)N(C)c1cc(F)ccc1F (centres unmarked) [Compound No. 9] | 0% | 0% | 0% | 0% | 0% | 0% | 100% | 100% | 90% | 100% | 100% | 70% | 80% | 80% | 0% | 0% | 100% | 0% | 0% | 20% | degree of damage to the plants (% damage) (PANDI (Fall panicum); treated amount 0.025 kg/ha): 90%; degree of damage to the plants (% damage) (TRZAW (Wheat); treated amount 0.025 kg/ha): 0%; degree of damage to the plants (% damage) (TRZAW (Wheat); treated amount 0.1 kg/ha): 0%; degree of damage to the plants (% damage) (TRZAW (Wheat); treated amount 0.4 kg/ha): 0%; degree of damage to the plants (% damage) (DIGSA (Large crabgrass); treated amount 0.025 kg/ha): 100%; degree of damage to the plants (% damage) (DIGSA (Large crabgrass); treated amount 0.1 kg/ha): 100%; degree of damage to the plants (% damage) (DIGSA (Large crabgrass); treated amount 0.4 kg/ha): 100%
2 | CC(Oc1ccc(Oc2nc3ccc(Cl)cc3o2)cc1)C(=O)N(C)c1c(F)ccc(F)c1F (centres unmarked) [Compound No. 6, 2-[4-(6-Chloro-2-benzoxazoyloxy)-phenoxy]propionic Acid-N-methyl-N-(2,3,6-trifluorophenyl)amide] | 0% | 0% | 0% | 0% | 0% | 0% | 100% | 100% | 100% | 100% | 100% | 95% | 100% | 100% | 30% | 100% | 100% | 0% | 0% | 20% | degree of damage to the plants (% damage) (PANDI (Fall panicum); treated amount 0.025 kg/ha): 40%; degree of damage to the plants (% damage) (TRZAW (Wheat); treated amount 0.025 kg/ha): 0%; degree of damage to the plants (% damage) (TRZAW (Wheat); treated amount 0.1 kg/ha): 0%; degree of damage to the plants (% damage) (TRZAW (Wheat); treated amount 0.4 kg/ha): 0%; degree of damage to the plants (% damage) (DIGSA (Large crabgrass); treated amount 0.025 kg/ha): 40%; degree of damage to the plants (% damage) (DIGSA (Large crabgrass); treated amount 0.1 kg/ha): 100%; degree of damage to the plants (% damage) (DIGSA (Large crabgrass); treated amount 0.4 kg/ha): 100%
3 | CC(Oc1ccc(Oc2nc3ccc(Cl)cc3o2)cc1)C(=O)N(C)c1ccc(Cl)cc1F (centres unmarked) [Compound No. 8] | 0% | 0% | 0% | 0% | 0% | 0% | 0% | 100% | 0% | 70% | 100% | 0% | 0% | 70% | 0% | 0% | 0% | 0% | 0% | 0% | degree of damage to the plants (% damage) (PANDI (Fall panicum); treated amount 0.025 kg/ha): 0%; degree of damage to the plants (% damage) (TRZAW (Wheat); treated amount 0.025 kg/ha): 0%; degree of damage to the plants (% damage) (TRZAW (Wheat); treated amount 0.1 kg/ha): 0%; degree of damage to the plants (% damage) (TRZAW (Wheat); treated amount 0.4 kg/ha): 0%; degree of damage to the plants (% damage) (DIGSA (Large crabgrass); treated amount 0.025 kg/ha): 30%; degree of damage to the plants (% damage) (DIGSA (Large crabgrass); treated amount 0.1 kg/ha): 95%; degree of damage to the plants (% damage) (DIGSA (Large crabgrass); treated amount 0.4 kg/ha): 100%
4 | Cc1ccc(F)c(N(C)C(=O)C(C)Oc2ccc(Oc3nc4ccc(Cl)cc4o3)cc2)c1 (centres unmarked) [Compound No. 7] | 0% | 0% | 10% | 0% | 0% | 0% | 100% | 100% | 10% | 95% | 100% | 20% | 40% | 40% | 0% | 0% | 0% | 0% | 0% | 0% | degree of damage to the plants (% damage) (PANDI (Fall panicum); treated amount 0.025 kg/ha): 100%; degree of damage to the plants (% damage) (TRZAW (Wheat); treated amount 0.025 kg/ha): 0%; degree of damage to the plants (% damage) (TRZAW (Wheat); treated amount 0.1 kg/ha): 0%; degree of damage to the plants (% damage) (TRZAW (Wheat); treated amount 0.4 kg/ha): 0%; degree of damage to the plants (% damage) (DIGSA (Large crabgrass); treated amount 0.025 kg/ha): 100%; degree of damage to the plants (% damage) (DIGSA (Large crabgrass); treated amount 0.1 kg/ha): 100%; degree of damage to the plants (% damage) (DIGSA (Large crabgrass); treated amount 0.4 kg/ha): 100%
5 | CC(Oc1ccc(Oc2nc3ccc(Cl)cc3o2)cc1)C(=O)N(C)c1cc(F)c(F)cc1F (centres unmarked) [Compound No. 3, 2-[4-(6-Chloro-2-benzoxazoyloxy)-phenoxy]propionic Acid-N-methyl-N-(2,4,5-trifluorophenyl)amide] | 0% | 0% | 10% | 0% | 0% | 0% | 0% | 0% | 40% | 100% | 100% | 0% | 60% | 95% | 0% | 0% | 0% | 0% | 0% | 10% | degree of damage to the plants (% damage) (PANDI (Fall panicum); treated amount 0.025 kg/ha): 0%; degree of damage to the plants (% damage) (TRZAW (Wheat); treated amount 0.025 kg/ha): 0%; degree of damage to the plants (% damage) (TRZAW (Wheat); treated amount 0.1 kg/ha): 0%; degree of damage to the plants (% damage) (TRZAW (Wheat); treated amount 0.4 kg/ha): 0%; degree of damage to the plants (% damage) (DIGSA (Large crabgrass); treated amount 0.025 kg/ha): 30%; degree of damage to the plants (% damage) (DIGSA (Large crabgrass); treated amount 0.1 kg/ha): 90%; degree of damage to the plants (% damage) (DIGSA (Large crabgrass); treated amount 0.4 kg/ha): 100%
6 | CCOc1ccc(N(C)C(=O)C(C)Oc2ccc(Oc3nc4ccc(Cl)cc4o3)cc2)c(F)c1 (centres unmarked) [Compound No. 12] | 0% | 0% | 0% | 0% | 0% | 0% | 0% | 0% | 0% | 0% | 30% | 0% | 0% | 30% | 0% | 0% | 0% | 0% | 0% | 00% | degree of damage to the plants (% damage) (PANDI (Fall panicum); treated amount 0.025 kg/ha): 0%; degree of damage to the plants (% damage) (TRZAW (Wheat); treated amount 0.025 kg/ha): 0%; degree of damage to the plants (% damage) (TRZAW (Wheat); treated amount 0.1 kg/ha): 0%; degree of damage to the plants (% damage) (TRZAW (Wheat); treated amount 0.4 kg/ha): 0%; degree of damage to the plants (% damage) (DIGSA (Large crabgrass); treated amount 0.025 kg/ha): 80%; degree of damage to the plants (% damage) (DIGSA (Large crabgrass); treated amount 0.1 kg/ha): 100%; degree of damage to the plants (% damage) (DIGSA (Large crabgrass); treated amount 0.4 kg/ha): 100%
7 | COc1ccc(N(C)C(=O)C(C)Oc2ccc(Oc3nc4ccc(Cl)cc4o3)cc2)c(F)c1 (centres unmarked) [Compound No. 11] | 0% | 0% | 0% | 0% | 0% | 0% | 20% | 40% | 0% | 20% | 70% | 0% | 0% | 40% | 0% | 0% | 0% | 0% | 0% | 0% | degree of damage to the plants (% damage) (TRZAW (Wheat); treated amount 0.025 kg/ha): 0%; degree of damage to the plants (% damage) (TRZAW (Wheat); treated amount 0.1 kg/ha): 0%; degree of damage to the plants (% damage) (TRZAW (Wheat); treated amount 0.4 kg/ha): 0%; degree of damage to the plants (% damage) (DIGSA (Large crabgrass); treated amount 0.025 kg/ha): 95%; degree of damage to the plants (% damage) (DIGSA (Large crabgrass); treated amount 0.1 kg/ha): 95%; degree of damage to the plants (% damage) (DIGSA (Large crabgrass); treated amount 0.4 kg/ha): 95%
